Source: US5935932A, “Bradykinin antagonists containing pentafluorophenylalanine” (University Technology Corporation, priority 1998, dated 1999)
Like-named read-outs stand apart in the source and are kept apart here. Where a SMILES comes first, the peptide text is derived from it. [ ]: non-standard residue; d: D form. dPhe(F5) = N[C@H](Cc1c(F)c(F)c(F)c(F)c1F)C(=O)O; Oic = O=C(O)[C@@H]1C[C@@H]2CCCC[C@@H]2N1; Igl = N[C@H](C(=O)O)C1Cc2ccccc2C1; Hyp = O=C(O)[C@@H]1C[C@@H](O)CN1; NMeF = CN[C@@H](Cc1ccccc1)C(=O)O; 2Thi = N[C@@H](Cc1cccs1)C(=O)O

Tests used:
[1] = target: T1, bradykinin receptors in Guinea Pig Ileum (Cavia porcellus, UniProt O70526); assay: Guinea Pig Ileum functional assay; format: cell-based
T1 construct: describes the Guinea Pig Ileum assay used to analyze the present compounds; from tissue; host or cells: isolated guinea pig ileum
T1 sequence (O70526 1-372): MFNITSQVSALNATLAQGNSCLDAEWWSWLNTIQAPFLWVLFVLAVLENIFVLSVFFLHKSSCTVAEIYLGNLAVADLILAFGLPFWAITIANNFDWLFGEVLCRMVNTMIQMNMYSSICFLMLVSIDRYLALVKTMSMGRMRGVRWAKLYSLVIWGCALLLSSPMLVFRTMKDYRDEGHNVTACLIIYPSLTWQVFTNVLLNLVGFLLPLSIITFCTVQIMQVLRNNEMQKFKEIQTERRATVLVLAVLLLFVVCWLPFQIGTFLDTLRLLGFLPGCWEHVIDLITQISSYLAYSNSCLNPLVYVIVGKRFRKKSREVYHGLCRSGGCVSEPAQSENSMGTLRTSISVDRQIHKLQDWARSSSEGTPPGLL
From the text: 5. Guinea Pig Ileum functional assay
Trautshold, Handbook of Expt. Pharmacol. Vol 25, Springer Verlag pp 53-55 (1970) describes the Guinea Pig Ileum assay used to analyze the present compounds. The Trautshold method was used without changes to the parameters. U.S. Pat. No. 4,693,993, at Column 14, line 10 gives a general description of data analysis for this assay.
In this table, I=inhibitor, and numbers in parenthesis are pA2. Agonist activity are given as percent BK activity.

[2] = target: T2, bradykinin receptors in Rat Uterus (Rattus norvegicus, UniProt P25023); assay: Rat Uterus functional assay; format: cell-based
T2 construct: describes the Rat Uterus assay used to analyze the present compounds; from tissue; host or cells: isolated rat uterus
T2 sequence (P25023 1-396): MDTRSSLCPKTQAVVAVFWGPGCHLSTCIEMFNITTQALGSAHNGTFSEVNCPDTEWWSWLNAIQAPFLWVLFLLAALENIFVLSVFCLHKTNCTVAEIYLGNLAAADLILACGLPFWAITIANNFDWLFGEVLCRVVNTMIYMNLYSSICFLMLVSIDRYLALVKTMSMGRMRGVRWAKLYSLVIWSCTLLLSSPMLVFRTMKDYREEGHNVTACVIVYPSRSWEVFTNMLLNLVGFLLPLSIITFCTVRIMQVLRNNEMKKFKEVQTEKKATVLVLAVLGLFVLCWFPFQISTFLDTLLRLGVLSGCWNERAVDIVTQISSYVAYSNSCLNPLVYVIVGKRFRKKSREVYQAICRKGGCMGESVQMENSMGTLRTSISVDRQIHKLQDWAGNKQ
From the text: 4. Rat Uterus functional assay Trautshold, Handbook of Expt. Pharmacol. […] The Trautshold method was used without changes to the parameters. U.S. Pat. No. 4,693,993, at Column 14, line 10 gives a general description of data analysis for this assay. In this table, I=inhibitor, and numbers in parenthesis are pA2. Agonist activity are given as percent BK activity.

[3] = Ileum, pA2 (I=inhibitor), number in parenthesis is pA2
[4] = number in parenthesis is pA2, read-out: Ileum, pA2 (I=inhibitor) (converted)

| SMILES | Kb [1, 4] [nM] | Kb [2] [nM] | further results |
| --- | --- | --- | --- |
| N=C(N)NCCC[C@@H](N)C(=O)N[C@@H](CCCNC(=N)N)C(=O)N1CCC[C@H]1C(=O)N1C[C@H](O)C[C@H]1C(=O)NCC(=O)N[C@H](C(=O)N[C@@H](CO)C(=O)N[C@H](Cc1c(F)c(F)c(F)c(F)c1F)C(=O)N(CC(=O)N[C@@H](CCCNC(=N)N)C(=O)O)C1CCCCC1)C1Cc2ccccc2C1 [Compound B10112, DArg-Arg-Pro-Hyp-Gly-Igl-Ser-Df5f-NchG-Arg] |  |  | Kb [1, 3]: 25.1 nM; Uterus, agonist activity as percent BK activity ([2]; rat uterus, agonist activity): 21% |
| N=C(N)NCCC[C@@H](N)C(=O)N[C@@H](CCCNC(=N)N)C(=O)N1CCC[C@H]1C(=O)N1C[C@H](O)C[C@H]1C(=O)NCC(=O)N[C@H](C(=O)N[C@@H](CO)C(=O)N[C@H](Cc1c(F)c(F)c(F)c(F)c1F)C(=O)N1[C@H](C(=O)N[C@@H](CCCNC(=N)N)C(=O)O)C[C@@H]2CCCC[C@@H]21)C1Cc2ccccc2C1 [Compound B10044, DArg-Arg-Pro-Hyp-Gly-Igl-Ser-Df5f-Oic-Arg] | 3.98 | 7.94 |  |
| N=C(N)NCCC[C@H](NC(=O)[C@H](CCCCN)NC(=O)[C@@H](N)CCCCN)C(=O)N1CCC[C@H]1C(=O)N1C[C@H](O)C[C@H]1C(=O)NCC(=O)N[C@H](C(=O)N[C@@H](CO)C(=O)N[C@H](Cc1c(F)c(F)c(F)c(F)c1F)C(=O)N[C@H](C(=O)O)C1CCCCC1)C1Cc2ccccc2C1 [Compound B10146, Lys-Lys-Arg-Pro-Hyp-Gly-Igl-Ser-Df5f-Chg] |  |  | Kb [1, 3]: 1260 nM; Uterus, activity in words ([2]; rat uterus, symbol without number): Ag |
| N=C(N)NCCC[C@@H](N)C(=O)N[C@@H](CCCNC(=N)N)C(=O)N1CCC[C@H]1C(=O)N1C[C@H](O)C[C@H]1C(=O)NCC(=O)N[C@H](C(=O)N[C@@H](CO)C(=O)N[C@H](Cc1c(F)c(F)c(F)c(F)c1F)C(=O)N[C@@H](Cc1c(F)c(F)c(F)c(F)c1F)C(=O)N[C@@H](CCCNC(=N)N)C(=O)O)C1Cc2ccccc2C1 [Compound B10232, DArg-Arg-Pro-Hyp-Gly-Igl-Ser-Df5f-f5f-Arg] | 20 | 7.94 |  |
| CN(C(=O)[C@H](CCCNC(=N)N)NC(=O)[C@H](N)CCCNC(=N)N)[C@@H](Cc1ccccc1)C(=O)N1C[C@H](O)C[C@H]1C(=O)NCC(=O)N[C@H](C(=O)N[C@@H](CO)C(=O)N[C@H](Cc1c(F)c(F)c(F)c(F)c1F)C(=O)N1[C@H](C(=O)N[C@@H](CCCNC(=N)N)C(=O)O)C[C@@H]2CCCC[C@@H]21)C1Cc2ccccc2C1 [Compound B10150, DArg-Arg-NMF-Hyp-Gly-Igl-Ser-Df5f-Oic-Arg] (H-[dR]R[NMeF][Hyp]G[Igl]S[dPhe(F5)][Oic]R-OH; N-terminus and C-terminus assumed) | 12.6 | 7.94 |  |
| N=C(N)NCCC[C@@H](N)C(=O)N[C@@H](CCCNC(=N)N)C(=O)N1CCC[C@H]1C(=O)N1C[C@H](O)C[C@H]1C(=O)NCC(=O)N[C@H](C(=O)N[C@@H](CO)C(=O)N[C@H](Cc1c(F)c(F)c(F)c(F)c1F)C(=O)N[C@H](C(=O)N[C@@H](CCCNC(=N)N)C(=O)O)C1CCCCC1)C1Cc2ccccc2C1 [Compound B10180, DArg-Arg-Pro-Hyp-Gly-Igl-Ser-Df5f-Chg-Arg] | 7.94 | 6.31 |  |
| N=C(N)NCCC[C@H](NC(=O)[C@H](CCCCN)NC(=O)[C@@H](N)CCCCN)C(=O)N1CCC[C@H]1C(=O)N1C[C@H](O)C[C@H]1C(=O)NCC(=O)N[C@H](C(=O)N[C@@H](CO)C(=O)N[C@H](Cc1c(F)c(F)c(F)c(F)c1F)C(=O)N1[C@H](C(=O)O)C[C@@H]2CCCC[C@@H]21)C1Cc2ccccc2C1 [Compound B10148, Lys-Lys-Arg-Pro-Hyp-Gly-Igl-Ser-Df5f-Oic] | 1000 | 63.1 |  |
| N=C(N)NCCC[C@@H](N)C(=O)N[C@@H](CCCNC(=N)N)C(=O)N1CCC[C@H]1C(=O)N1C[C@H](O)C[C@H]1C(=O)NCC(=O)N[C@H](C(=O)N[C@@H](CO)C(=O)N[C@@H](C(=O)N[C@@H](Cc1c(F)c(F)c(F)c(F)c1F)C(=O)N[C@@H](CCCNC(=N)N)C(=O)O)C1Cc2ccccc2C1)C1Cc2ccccc2C1 [Compound B10178, DArg-Arg-Pro-Hyp-Gly-Igl-Ser-DIgl-f5f-Arg] | 398 | 31600 |  |
| CC(C)C[C@H](NC(=O)[C@@H](Cc1c(F)c(F)c(F)c(F)c1F)NC(=O)[C@H](CO)NC(=O)[C@H](Cc1cccs1)NC(=O)CNC(=O)[C@@H]1C[C@@H](O)CN1C(=O)[C@@H]1CCCN1C(=O)[C@H](CCCNC(=N)N)NC(=O)[C@H](N)CCCNC(=N)N)C(=O)N[C@@H](CCCNC(=N)N)C(=O)O [Compound B10172, DArg-Arg-Pro-Hyp-Gly-Thi-Ser-Df5f-Leu-Arg] (H-[dR]RP[Hyp]G[2Thi]S[dPhe(F5)]LR-OH; N-terminus and C-terminus assumed) | 50.1 | 5.01 |  |
| N=C(N)NCCC[C@H](NC(=O)[C@@H]1C[C@@H]2CCCC[C@@H]2N1C(=O)[C@@H](Cc1c(F)c(F)c(F)c(F)c1F)NC(=O)[C@H](CO)NC(=O)[C@@H](NC(=O)CNC(=O)[C@@H]1C[C@@H](O)CN1C(=O)[C@@H]1CCCN1C(=O)[C@H](CCCNC(=N)N)NC(=O)[C@@H](CCCNC(=N)N)NC(=O)C12CC3CC(CC(C3)C1)C2)C1Cc2ccccc2C1)C(=O)O [Compound B10154, Aca-DArg-Arg-Pro-Hyp-Gly-Igl-Ser-Df5f-Oic-Arg] | 12.6 | 6.31 |  |
| N=C(N)NCCC[C@@H](N)C(=O)N[C@@H](CCCNC(=N)N)C(=O)N1CCC[C@H]1C(=O)N[C@H](C(=O)NCC(=O)N[C@H](C(=O)N[C@@H](CO)C(=O)N[C@H](Cc1c(F)c(F)c(F)c(F)c1F)C(=O)N1[C@H](C(=O)N[C@@H](CCCNC(=N)N)C(=O)O)C[C@@H]2CCCC[C@@H]21)C1Cc2ccccc2C1)C1Cc2ccccc2C1 [Compound B10214, DArg-Arg-Pro-Igl-Gly-Igl-Ser-Df5f-Oic-Arg] | 7.94 | 6.31 |  |
| N=C(N)NCCC[C@@H](N)C(=O)N[C@@H](CCCNC(=N)N)C(=O)N1CCC[C@H]1C(=O)N1C[C@H](O)C[C@H]1C(=O)NCC(=O)N[C@H](C(=O)N[C@@H](CO)C(=O)N[C@H](Cc1c(F)c(F)c(F)c(F)c1F)C(=O)N(CC(=O)N[C@@H](CCCNC(=N)N)C(=O)O)C1CCCCCC1)C1Cc2ccccc2C1 [Compound B10206, DArg-Arg-Pro-Hyp-Gly-Igl-Ser-Df5f-Nc7G-Arg] | 15.8 | 1.26 |  |
| N=C(N)NCCC[C@H](NC(=O)[C@H](Cc1c(F)c(F)c(F)c(F)c1F)NC(=O)[C@@H](Cc1c(F)c(F)c(F)c(F)c1F)NC(=O)[C@H](CO)NC(=O)[C@@H](NC(=O)CNC(=O)[C@@H]1C[C@@H](O)CN1C(=O)[C@@H]1CCCN1C(=O)[C@H](CCCNC(=N)N)NC(=O)[C@H](CCCNC(=N)N)NC(=O)CCC(=O)OCCOC(=O)CCC(=O)N[C@@H](CCCNC(=N)N)C(=O)N[C@@H](CCCNC(=N)N)C(=O)N1CCC[C@H]1C(=O)N1C[C@H](O)C[C@H]1C(=O)NCC(=O)N[C@H](C(=O)N[C@@H](CO)C(=O)N[C@H](Cc1c(F)c(F)c(F)c(F)c1F)C(=O)N[C@@H](Cc1c(F)c(F)c(F)c(F)c1F)C(=O)N[C@@H](CCCNC(=N)N)C(=O)O)C1Cc2ccccc2C1)C1Cc2ccccc2C1)C(=O)O [Compound B10236, EGS-(Arg-Arg-Pro-Hyp-Gly-Igl-Ser-Df5f-f5f-Arg)2] | 39.8 |  | Kb ([2]; rat uterus, number in parenthesis is pA2, read-out: Uterus, pA2 (I=inhibitor) (converted)): 20 nM |
| N=C(N)NCCC[C@@H](N)C(=O)N[C@@H](CCCNC(=N)N)C(=O)N1CCC[C@H]1C(=O)N1C[C@H](O)C[C@H]1C(=O)NCC(=O)N[C@@H](Cc1c(F)c(F)c(F)c(F)c1F)C(=O)N[C@@H](CO)C(=O)N[C@@H](C(=O)N1[C@H](C(=O)N[C@@H](CCCNC(=N)N)C(=O)O)C[C@@H]2CCCC[C@@H]21)C1Cc2ccccc2C1 [Compound B10210, DArg-Arg-Pro-Hyp-Gly-f5f-Ser-DIgl-Oic-Arg] | 15.8 |  |  |
